One series is described as follows: Stability in plasma. The class given is in vitro ADME. The note with it: mouse plasma, 1 μM, over 2 h. As for the experimental part: Pooled heparinised mouse plasma was warmed to 37°C for 10 min, mixed and cleared of aggregated protein by centrifugation. Aliquots of the clear supernatant were transferred into the assay plate. Following equilibration to 37°C, biotransformation was initiated by adding and mixing of 1 μM compound solution in a final incubation volume of 300 μl; 25 μl aliquots were removed at 0, 5, 15, 30, 60 and 120 min and quenched in 300 μl ice‐cold acetonitrile containing internal standard. After storing the samples at −20°C for a minimum of 4 h, the protein in the samples was precipitated by centrifugation at 4°C, and the supernatants were analysed by LC–MS/MS to quantify the % input test compound remaining.

The target in another series is T1, human TRPC5 (Homo sapiens, UniProt Q9UL62).
T1 construct: expressed in transfected cells
T1 sequence (Q9UL62 1-973): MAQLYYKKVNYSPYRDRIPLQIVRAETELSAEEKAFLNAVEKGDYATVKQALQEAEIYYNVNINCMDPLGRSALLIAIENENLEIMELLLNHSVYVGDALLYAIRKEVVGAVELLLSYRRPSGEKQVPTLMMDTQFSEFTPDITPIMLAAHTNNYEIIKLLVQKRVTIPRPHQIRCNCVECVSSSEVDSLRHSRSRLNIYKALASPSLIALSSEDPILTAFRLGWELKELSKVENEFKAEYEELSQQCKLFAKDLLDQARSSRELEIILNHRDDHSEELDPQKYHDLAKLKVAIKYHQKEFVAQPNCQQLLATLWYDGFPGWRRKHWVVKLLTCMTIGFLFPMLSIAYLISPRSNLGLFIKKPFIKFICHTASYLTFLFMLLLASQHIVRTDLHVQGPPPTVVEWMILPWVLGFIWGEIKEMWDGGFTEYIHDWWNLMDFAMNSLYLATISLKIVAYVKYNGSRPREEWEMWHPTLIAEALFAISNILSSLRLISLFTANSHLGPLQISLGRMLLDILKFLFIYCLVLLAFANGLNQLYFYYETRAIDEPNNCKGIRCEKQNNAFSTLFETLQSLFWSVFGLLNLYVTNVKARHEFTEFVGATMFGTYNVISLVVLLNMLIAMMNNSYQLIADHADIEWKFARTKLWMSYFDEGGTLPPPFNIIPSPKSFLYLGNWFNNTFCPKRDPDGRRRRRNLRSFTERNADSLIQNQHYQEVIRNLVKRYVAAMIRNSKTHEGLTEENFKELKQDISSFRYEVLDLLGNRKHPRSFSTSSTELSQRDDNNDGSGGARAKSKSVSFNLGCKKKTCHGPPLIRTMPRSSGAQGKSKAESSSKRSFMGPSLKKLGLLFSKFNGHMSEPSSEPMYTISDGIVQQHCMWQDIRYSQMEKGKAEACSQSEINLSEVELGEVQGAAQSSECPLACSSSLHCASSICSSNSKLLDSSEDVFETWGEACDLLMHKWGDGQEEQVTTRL
Briefly: Intracellular Ca2+ measurement in hTRPC5-TREx cells. The format is cell-based. The note with it: 10 μM. As for the experimental part: HEK T‐REx™ 293 cells stably expressing tetracycline‐regulated human TRPC5 have been described previously (Zeng et al., [2004]). For the TRPC5‐expressing cells, selection was achieved by including 5 μg·ml^−1 blasticidin and 400 μg·ml^−1 zeocin in the cell medium. To induce expression, cells were incubated with 1 μg·ml^−1 tetracycline for 24 h prior to experiments. These cells are referred to as hTRPC5‐TREx.
HEK 293‐TREx cells and their stably transfected derivatives or transiently transfected HEK 293 or HeLa cells were seeded at a density of 7.5 × 10^4 cells per well into poly‐D‐lysine‐coated 96‐well plates. The plates were either commercially pre‐coated with poly‐D‐lysine (Greiner Bio‐One #655946) or (Greiner Bio‐One #655090) were coated in‐house with 35 μl of a 10 μg·ml^−1 poly‐D‐lysine (Bio‐Techne, Cultrex # 3439‐100‐01) in sterile deionised water per well for at least 24 h and rinsed three times with 100 μl per well sterile D‐PBS before addition of cells. HUVECs were seeded into tissue culture‐treated 96‐well plates (Greiner Bio‐One #655090) at a density of either 2.5 × 10^4 cells 24 h before experimentation or 1.25 × 10^4 cells 48 h before experimentation. Cells were incubated with 2 μM Fura‐2‐AM (Molecular Probes™) in the presence of 0.01% (wt./vol.) pluronic F127 (Sigma‐Aldrich #P2443) in standard bath solution (SBS) for 1 h at 37°C. Cells were washed with SBS for 30 min at room temperature. Alternatively, if inhibitors were being tested, these were added at this time, immediately following a wash in SBS. (−)‐Englerin A (Akbulut et al., [2015]) was used in SBS containing 0.01% pluronic acid as a dispersing agent to minimise aggregation of compound. Unless otherwise stated, the final concentration of DMSO was 0.2% (vol./vol). […] Measurements were made at room temperature on a 96‐well fluorescence plate reader (FlexStation 3, Molecular Devices, Sunnyvale, CA, USA) controlled by SoftMax Pro software v7.0.3. […]

The structures appear in SMILES notation.

With `O=C([O-])c1ccc(-c2nnc(SCc3c(Cl)cccc3Cl)s2)cc1.[K+]` [KC289], in the series “Stability in plasma”, the Plasma stability entry is on record as “good stability over 2 h”. For the same molecule, on human TRPC5, the “Ca2+ response in cells expressing TRPC5 in place of PIEZO1” value (shortened to “Ca2+ response in cells expressing TRPC5”) is reported as “fail to evoke responses”.

On to `O=C(O)c1ccc(-c2nnc(SCc3c(Cl)cccc3Cl)s2)cc1` [KC159], for which the Plasma stability result in “Stability in plasma” is recorded as “good stability over 2 h”. Also, the “Ca2+ response in cells expressing TRPC5” value on human TRPC5 is recorded as “fail to evoke responses”.

For `Clc1cccc(Cl)c1CSc1nnc(-c2cnccn2)s1` [Yoda1, 2‐[5‐[[(2,6‐dichlorophenyl)methyl]thio]‐1,3,4‐thiadiazol‐2‐yl]pyrazine], the Plasma stability entry in “Stability in plasma” is “good stability over 2 h”. Moreover, the “Ca2+ response in cells expressing TRPC5” value at human TRPC5 is “fail to evoke responses”.
